These results are taken from ChEMBL document CHEMBL1128360 (J Med Chem, 1995).

The target of this test is T1, 5-hydroxytryptamine receptor 1A (Rattus norvegicus, UniProt P19327).
T1 sequence (P19327 whole entry): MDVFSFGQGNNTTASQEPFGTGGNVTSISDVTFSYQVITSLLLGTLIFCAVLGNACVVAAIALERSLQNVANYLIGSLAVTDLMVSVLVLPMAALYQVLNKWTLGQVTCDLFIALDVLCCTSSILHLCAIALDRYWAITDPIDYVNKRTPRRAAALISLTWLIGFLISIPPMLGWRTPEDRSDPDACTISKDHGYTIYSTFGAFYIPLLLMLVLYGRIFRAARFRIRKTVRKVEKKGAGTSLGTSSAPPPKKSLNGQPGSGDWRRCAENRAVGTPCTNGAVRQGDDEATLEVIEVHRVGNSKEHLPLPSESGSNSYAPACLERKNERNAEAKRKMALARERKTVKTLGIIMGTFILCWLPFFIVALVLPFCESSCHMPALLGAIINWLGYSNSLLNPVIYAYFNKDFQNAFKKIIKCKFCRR
Briefly: Inhibitory affinity constant against 5-hydroxytryptamine 1A receptor.

With `CC1(C)CC(=O)N(CCCCN2CCN(c3ccc4ccccc4n3)CC2)C(=O)C1`, the affinity, expressed as Ki, was 10.5 nM.
